Test results published in patent publication US10538498B2, “1,3,4-oxadiazole sulfonamide derivative compounds as histone deacetylase 6 inhibitor, and the pharmaceutical composition comprising the same” (Chong Kun Dang Pharmaceutical Corp., priority 2015, dated 2020).

Molecular target: T1, human recombinant HDAC6 (Homo sapiens, UniProt Q9UBN7)
T1 construct: purchased Calbiochem 382180
T1 sequence (Q9UBN7 1-1215): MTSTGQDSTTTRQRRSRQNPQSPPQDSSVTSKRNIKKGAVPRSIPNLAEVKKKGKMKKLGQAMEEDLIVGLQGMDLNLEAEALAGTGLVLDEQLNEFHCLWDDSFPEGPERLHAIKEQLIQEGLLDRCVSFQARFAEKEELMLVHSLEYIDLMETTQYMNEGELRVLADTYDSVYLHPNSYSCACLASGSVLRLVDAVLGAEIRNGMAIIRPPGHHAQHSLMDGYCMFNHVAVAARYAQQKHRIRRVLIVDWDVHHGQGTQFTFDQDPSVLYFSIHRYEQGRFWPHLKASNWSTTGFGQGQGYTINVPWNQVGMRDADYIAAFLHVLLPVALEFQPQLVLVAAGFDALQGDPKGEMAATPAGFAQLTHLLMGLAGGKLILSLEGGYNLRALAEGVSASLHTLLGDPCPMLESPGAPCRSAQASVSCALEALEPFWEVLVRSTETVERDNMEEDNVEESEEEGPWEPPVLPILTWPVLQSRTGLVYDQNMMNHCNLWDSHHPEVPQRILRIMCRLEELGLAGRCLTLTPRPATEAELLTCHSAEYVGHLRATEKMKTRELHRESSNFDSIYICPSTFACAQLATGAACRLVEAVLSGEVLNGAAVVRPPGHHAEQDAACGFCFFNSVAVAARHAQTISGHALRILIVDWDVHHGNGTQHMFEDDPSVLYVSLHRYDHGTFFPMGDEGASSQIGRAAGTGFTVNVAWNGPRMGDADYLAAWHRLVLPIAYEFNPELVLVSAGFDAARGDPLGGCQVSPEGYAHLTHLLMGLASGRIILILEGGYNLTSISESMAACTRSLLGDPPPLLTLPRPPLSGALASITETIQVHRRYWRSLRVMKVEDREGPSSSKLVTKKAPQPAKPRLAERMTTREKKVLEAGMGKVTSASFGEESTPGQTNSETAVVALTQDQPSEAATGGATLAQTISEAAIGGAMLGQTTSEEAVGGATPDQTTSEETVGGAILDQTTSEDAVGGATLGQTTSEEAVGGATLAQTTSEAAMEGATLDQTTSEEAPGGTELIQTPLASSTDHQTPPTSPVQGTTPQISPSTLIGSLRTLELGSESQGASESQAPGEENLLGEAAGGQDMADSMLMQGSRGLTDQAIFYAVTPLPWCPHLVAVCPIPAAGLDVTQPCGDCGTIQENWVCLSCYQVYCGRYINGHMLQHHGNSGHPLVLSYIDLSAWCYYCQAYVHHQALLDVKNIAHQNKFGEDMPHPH
Experiment: HDAC6 enzyme activity inhibition assay (HDAC Fluorimetric Drug Discovery Kit)
Format: biochemical
Settings: for HDAC6 selectivity (fold): HDAC1 vs HDAC6; for IC50: same protocol as the HDAC1 enzyme activity test
Summary of the method: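 5-fold compound dilutions + 0.3 μg enzyme + 10 μM Fluor de Lys-SIRT1 substrate, 60 min, 30° C; Developer II 30 min; fluorescence Ex 360/Em 460; IC50 by curve fit.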

HDAC6 selectivity (fold)	IC50 [nM]	SMILES
7692	13	O=S(=O)(C1CCOCC1)N(Cc1ccc(-c2nnc(C(F)F)o2)cn1)c1ccccc1 [Compound 11390, N-((5-(5-(difluoromethyl)-1,3,4-oxadiazol-2-yl)pyridin-2-yl)methyl)-N-phenyltetrahydro-2H-pyran-4-sulfonamide]
1000	100	CCS(=O)(=O)N(Cc1ccc(-c2nnc(C(F)F)o2)cc1F)c1cccc(CN2CCS(=O)(=O)CC2)c1 [Compound 11392, N-(4-(5-(difluoromethyl)-1,3,4-oxadiazol-2-yl)-2-fluorobenzyl)-N-(3-((1,1-dioxidothiomorpholino)methyl)phenyl)ethanesulfonamide]
1316	76	CCS(=O)(=O)N(Cc1ccc(-c2nnc(C(F)F)o2)cc1F)c1ccc(CN2CCN(C(C)=O)CC2)cc1 [Compound 11402, N-(4-((4-acetylpiperazin-1-yl)methyl)phenyl)-N-(4-(5-(difluoromethyl)-1,3,4-oxadiazol-2-yl)-2-fluorobenzyl)ethanesulfonamide]
1282	78	CCS(=O)(=O)N(Cc1ccc(-c2nnc(C(F)F)o2)cc1F)c1cccc(CN2CCN(C(C)=O)CC2)c1 [Compound 11403, N-(3-((4-acetylpiperazin-1-yl)methyl)phenyl)-N-(4-(5-(difluoromethyl)-1,3,4-oxadiazol-2-yl)-2-fluorobenzyl)ethanesulfonamide]
952	105	CCS(=O)(=O)N(Cc1ccc(-c2nnc(C(F)F)o2)cc1F)c1cccc(CN2CCN(S(C)(=O)=O)CC2)c1 [Compound 11404, N-(4-(5-(difluoromethyl)-1,3,4-oxadiazol-2-yl)-2-fluorobenzyl)-N-(3-((4-(methylsulfonyl)piperazin-1-yl)methyl)phenyl)ethanesulfonamide]
1493	67	CCS(=O)(=O)N(Cc1ccc(-c2nnc(C(F)F)o2)cc1F)c1cccc(CN2CCN(C)CC2)c1 [Compound 11405, N-(4-(5-(difluoromethyl)-1,3,4-oxadiazol-2-yl)-2-fluorobenzyl)-N-(3-((4-methylpiperazin-1-yl)methyl)phenyl)ethanesulfonamide]
435	230	CCS(=O)(=O)N(Cc1ccc(-c2nnc(C(F)(F)F)o2)cc1F)c1cccc(CN2CCN(C(C)=O)CC2)c1 [Compound 11406, N-(3-((4-acetylpiperazin-1-yl)methyl)phenyl)-N-(2-fluoro-4-(5-(trifluoromethyl)-1,3,4-oxadiazol-2-yl)benzyl)ethanesulfonamide]
14286	7	CCS(=O)(=O)N(Cc1ccc(-c2nnc(C(F)F)o2)cn1)c1ccc(F)c(Cl)c1 [Compound 11411, N-(3-chloro-4-fluorophenyl)-N-((5-(5-(difluoromethyl)-1,3,4-oxadiazol-2-yl)pyridin-2-yl)methyl)ethanesulfonamide]
8333	12	CCS(=O)(=O)N(Cc1ccc(-c2nnc(C(F)F)o2)cn1)c1ccccc1 [Compound 11412, N-((5-(5-(difluoromethyl)-1,3,4-oxadiazol-2-yl)pyridin-2-yl)methyl)-N-phenylethanesulfonamide]
7692	13	CS(=O)(=O)N1CCC(S(=O)(=O)N(Cc2ccc(-c3nnc(C(F)F)o3)cn2)c2ccccc2)CC1 [Compound 11426, N-((5-(5-(difluoromethyl)-1,3,4-oxadiazol-2-yl)pyridin-2-yl)methyl)-1-(methylsulfonyl)-N-phenylpiperidine-4-sulfonamide]
352	284	CCS(=O)(=O)N(Cc1ccc(-c2nnc(C(F)F)o2)cc1F)c1cccc(C2CCN(C)CC2)c1 [Compound 11427, N-(4-(5-(difluoromethyl)-1,3,4-oxadiazol-2-yl)-2-fluorobenzyl)-N-(3-(1-methylpiperidin-4-yl)phenyl)ethanesulfonamide]
6667	15	O=S(=O)(C1CCOC1)N(Cc1ccc(-c2nnc(C(F)F)o2)cn1)c1ccccc1 (stereo not shown) [Compound 11428, N-((5-(5-(difluoromethyl)-1,3,4-oxadiazol-2-yl)pyridin-2-yl)methyl)-N-phenyltetrahydrofuran-3-sulfonamide]
8333	12	CS(=O)(=O)N(Cc1ccc(-c2nnc(C(F)F)o2)cn1)c1ccc(F)c(Cl)c1 [Compound 11433, N-(3-chloro-4-fluorophenyl)-N-((5-(5-(difluoromethyl)-1,3,4-oxadiazol-2-yl)pyridin-2-yl)methyl)methanesulfonamide]
5556	18	CC(=O)N1CC(N2CCC(S(=O)(=O)N(Cc3ccc(-c4nnc(C(F)F)o4)cc3F)c3ccc(F)c(Cl)c3)CC2)C1 [Compound 11447, 1-(1-acetylazetidin-3-yl)-N-(3-chloro-4-fluorophenyl)-N-(4-(5-(difluoromethyl)-1,3,4-oxadiazol-2-yl)-2-fluorobenzyl)piperidine-4-sulfonamide]
4762	21	CS(=O)(=O)N1CC(N2CCC(S(=O)(=O)N(Cc3ccc(-c4nnc(C(F)F)o4)cc3F)c3ccc(F)c(Cl)c3)CC2)C1 [Compound 11448, N-(3-chloro-4-fluorophenyl)-N-(4-(5-(difluoromethyl)-1,3,4-oxadiazol-2-yl)-2-fluorobenzyl)-1-(1-(methylsulfonyl)azetidin-3-yl)piperidine-4-sulfonamide]
3125	32	CCS(=O)(=O)N(Cc1ccc(-c2nnc(C(F)F)o2)cc1F)c1cccc2c1cnn2C [Compound 11520, N-(4-(5-(difluoromethyl)-1,3,4-oxadiazol-2-yl)-2-fluorobenzyl)-N-(1-methyl-1H-indazol-4-yl)ethanesulfonamide]
4167	24	CCS(=O)(=O)N(Cc1ccc(-c2nnc(C(F)F)o2)cc1F)c1cccc2cnn(C)c12 [Compound 11522, N-(4-(5-(difluoromethyl)-1,3,4-oxadiazol-2-yl)-2-fluorobenzyl)-N-(1-methyl-1H-indazol-7-yl)ethanesulfonamide]
4348	23	CCS(=O)(=O)N(Cc1ccc(-c2nnc(C(F)F)o2)cn1)c1cccc2c1cnn2C [Compound 11539, N-((5-(5-(difluoromethyl)-1,3,4-oxadiazol-2-yl)pyridin-2-yl)methyl)-N-(1-methyl-1H-indazol-4-yl)ethanesulfonamide]
10000	10	CCS(=O)(=O)N(Cc1ccc(-c2nnc(C(F)F)o2)cn1)c1ccc2cnn(C)c2c1 [Compound 11540, N-((5-(5-(difluoromethyl)-1,3,4-oxadiazol-2-yl)pyridin-2-yl)methyl)-N-(1-methyl-1H-indazol-6-yl)ethanesulfonamide]
6250	16	CCS(=O)(=O)N(Cc1ccc(-c2nnc(C(F)F)o2)cn1)c1cccc2cnn(C)c12 [Compound 11541, N-((5-(5-(difluoromethyl)-1,3,4-oxadiazol-2-yl)pyridin-2-yl)methyl)-N-(1-methyl-1H-indazol-7-yl)ethanesulfonamide]
